Test results taken from publication PMC3348135, “Identification of New Agonists and Antagonists of the Insect Odorant Receptor Co-Receptor Subunit” (PLoS ONE, 2012).

Assays:
Cqui\Orco = experiment: Agonist activation of homomeric Cqui\Orco in Xenopus oocytes, two-electrode voltage clamp; type: cell-based, Culex quinquefasciatus; details: 100 µM compound; mean ± SEM, n=3-8
Onub\Orco + Onub\Or1 = experiment: Agonist activation of Onub\Orco + Onub\Or1 in Xenopus oocytes, two-electrode voltage clamp; type: cell-based, Ostrinia nubilalis; details: 100 µM compound; mean ± SEM, n=3-8
Dmel\Orco + Dmel\Or35a [1] = target: T1, Dmel\Orco + Dmel\Or35a (Drosophila melanogaster, UniProt Q9VNB5); experiment: Agonist activation of Dmel\Orco + Dmel\Or35a in Xenopus oocytes, two-electrode voltage clamp; type: cell-based; details: for Response amplitude as percentage of response to 100 µM OLC3, Dmel\Orco + Dmel\Or35a: 100 µM compound, mean ± SEM, n=3-8; for Emax at 100 µM: read-out: Response amplitude as percentage of response to 100 µM OLC3, Dmel\Orco + Dmel\Or35a
T1 construct: expressed in transfected cells; host or cells: Xenopus laevis oocytes (cRNA injection, pGEMHE)
T1 sequence (Q9VNB5 1-486): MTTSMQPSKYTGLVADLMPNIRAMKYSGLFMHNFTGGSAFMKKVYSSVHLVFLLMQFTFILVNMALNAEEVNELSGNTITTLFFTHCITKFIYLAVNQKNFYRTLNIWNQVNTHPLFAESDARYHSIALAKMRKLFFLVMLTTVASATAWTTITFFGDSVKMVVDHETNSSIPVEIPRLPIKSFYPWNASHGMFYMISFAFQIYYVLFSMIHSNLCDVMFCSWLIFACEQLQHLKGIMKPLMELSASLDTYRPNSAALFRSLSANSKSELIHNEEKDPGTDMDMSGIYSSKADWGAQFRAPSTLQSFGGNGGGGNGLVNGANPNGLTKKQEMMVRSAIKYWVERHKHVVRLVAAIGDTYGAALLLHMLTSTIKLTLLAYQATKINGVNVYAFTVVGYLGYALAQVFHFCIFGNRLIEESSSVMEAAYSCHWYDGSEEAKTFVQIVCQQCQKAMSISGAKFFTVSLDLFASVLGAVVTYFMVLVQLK
T1 sequence (Q9V3Q2 1-409 partner): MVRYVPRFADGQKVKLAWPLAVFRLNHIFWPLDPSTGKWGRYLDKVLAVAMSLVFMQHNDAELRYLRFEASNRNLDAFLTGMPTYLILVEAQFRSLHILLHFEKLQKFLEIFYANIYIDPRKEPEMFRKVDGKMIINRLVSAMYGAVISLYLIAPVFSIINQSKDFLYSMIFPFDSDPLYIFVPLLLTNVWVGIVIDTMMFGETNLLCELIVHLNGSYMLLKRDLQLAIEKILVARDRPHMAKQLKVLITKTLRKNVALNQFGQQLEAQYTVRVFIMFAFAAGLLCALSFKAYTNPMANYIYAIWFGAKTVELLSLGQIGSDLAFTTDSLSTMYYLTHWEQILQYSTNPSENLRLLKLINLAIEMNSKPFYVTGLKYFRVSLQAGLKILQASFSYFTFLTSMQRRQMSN
Description: (§1) Oocytes were surgically removed from mature Xenopus laevis frogs. Follicle cells were removed by treatment with Collagenase B (Boehringer Mannhem) for 2 hours at room temperature. Capped cRNA encoding each DmOR subunit was generated using mMessage mMachine kits (Ambion). For heteromeric ORs, 25 ng of cRNA encoding each OR subunit was injected into Stage V-VI Xenopus oocytes. For expression of Orco alone, 50 ng of cRNA was injected. Oocytes were incubated at 18°C in Barth’s saline (in mM: 88 NaCl, 1 KCl, 2.4 NaHCO3, 0.3 CaNO3, 0.41 CaCl2, 0.82 MgSO4, 15 HEPES, pH 7.6, and 150 µg/ml ceftazidime) for 2–5 days prior to electrophysiological recording.
(§2) Odorant and Orco ligand induced currents were recorded under two-electrode voltage clamp in Xenopus laevis oocytes expressing ORs, using an automated parallel electrophysiology system (OpusExpress 6000A; Molecular Devices). Oocytes were perfused with ND96 (in mM: 96 NaCl, 2 KCl, 1 CaCl2, 1 MgCl2, 5 HEPES, pH 7.5). Odorant stock solutions (0.5 or 1 M) and Orco ligand stock solutions (100 mM) were prepared in DMSO and diluted in ND96. Unless otherwise noted, applications were for 60 sec at a flow rate of 1.0 ml/min, with extensive washing in ND96 (9 or 20 min at 4.6 ml/min) between applications. Micropipettes were filled with 3 M KCl and had resistances of 0.2−2.0 MΩ. The holding potential was −70 mV. Current responses, filtered (4-pole, Bessel, low pass) at 20 Hz (−3 db) and sampled at 100 Hz, were captured and stored using OpusXpress 1.1 software (Molecular Devices).
(§3) Initial analysis of electrophysiological data was done using Clampfit 9.1 software (Molecular Devices). Curve fitting and statistical analyses were done using Prism 5 (Graphpad). Concentration-response data were fit to the equation: I = Imax/(1+(EC50/X)^n) where I represents the current response at a given concentration of odorant, X; Imax is the maximal response; EC50 is the concentration of agonist yielding a half maximal response; n is the apparent Hill coefficient. Concentration-inhibition data were fit to the equation: I = Imax/(1+(X/IC50)^n) where I represents the current response at a given concentration of inhibitor, X; Imax is the maximal response in the absence of inhibitor; IC50 is the concentration of inhibitor present that still allows a half maximal response from odorant; n is the apparent Hill coefficient. Statistical significance was assessed using a two-tailed unpaired t test, an F test, or a one-way analysis of variance followed by the Bonferroni’s post-test, as appropriate.

Dmel\Orco [2] = target: T2, Dmel\Orco (Drosophila melanogaster, UniProt Q9VNB5); experiment: Agonist activation of homomeric Dmel\Orco in Xenopus oocytes, two-electrode voltage clamp; type: cell-based; details: for Response amplitude as percentage of response to 100 µM OLC3, Dmel\Orco: 100 µM compound, mean ± SEM, n=3-8; for Emax at 100 µM: read-out: Response amplitude as percentage of response to 100 µM OLC3, Dmel\Orco
T2 construct: expressed in transfected cells; host or cells: Xenopus laevis oocytes (cRNA injection, pGEMHE)
T2 sequence (Q9VNB5 1-486): T1 sequence (Q9VNB5 1-486)
Description: as §1, §2, §3

Cqui\Orco + Cqui\Or10 = Cqui\Orco + Cqui\Or10 (Culex quinquefasciatus, UniProt D5LMR7+Q309I4); experiment: Activation of Cqui\Orco + Cqui\Or10 in Xenopus oocytes, two-electrode voltage clamp; type: cell-based; details: 100 µM compound, mean ± SEM, n=3-8; for Emax at 100 µM: read-out: Response amplitude as percentage of response to 100 µM OLC3, Cqui\Orco + Cqui\Or10
Chain of Cqui\Orco + Cqui\Or10 (D5LMR7 entry or part of it): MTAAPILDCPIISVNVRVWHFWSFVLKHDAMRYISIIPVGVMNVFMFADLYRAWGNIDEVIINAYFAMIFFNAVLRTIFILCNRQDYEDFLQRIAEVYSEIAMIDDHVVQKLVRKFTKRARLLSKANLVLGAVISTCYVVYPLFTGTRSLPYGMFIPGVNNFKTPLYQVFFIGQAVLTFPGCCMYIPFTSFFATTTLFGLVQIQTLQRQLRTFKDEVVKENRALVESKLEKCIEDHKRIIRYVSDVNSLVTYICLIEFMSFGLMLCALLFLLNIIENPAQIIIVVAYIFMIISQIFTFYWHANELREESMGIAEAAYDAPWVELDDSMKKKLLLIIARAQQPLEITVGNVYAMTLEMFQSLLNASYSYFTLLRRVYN
Chain of Cqui\Orco + Cqui\Or10 (Q309I4 entry or part of it): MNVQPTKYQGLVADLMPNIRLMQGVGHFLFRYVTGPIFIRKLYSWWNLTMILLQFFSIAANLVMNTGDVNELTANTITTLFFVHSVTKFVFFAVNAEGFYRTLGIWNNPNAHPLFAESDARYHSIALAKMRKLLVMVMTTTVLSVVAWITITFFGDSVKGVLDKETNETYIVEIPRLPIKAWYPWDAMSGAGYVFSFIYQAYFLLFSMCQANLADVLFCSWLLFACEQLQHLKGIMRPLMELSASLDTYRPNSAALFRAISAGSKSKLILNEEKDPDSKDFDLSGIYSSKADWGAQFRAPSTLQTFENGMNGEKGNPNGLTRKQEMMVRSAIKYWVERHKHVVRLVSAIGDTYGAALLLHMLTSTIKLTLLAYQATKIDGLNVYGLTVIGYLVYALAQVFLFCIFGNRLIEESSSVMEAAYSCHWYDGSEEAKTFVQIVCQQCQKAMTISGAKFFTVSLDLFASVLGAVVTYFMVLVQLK
Description: as §1, §2, §3

Dmel\Orco + Dmel\Or35a [3] = target: T1, Dmel\Orco + Dmel\Or35a; experiment: Inhibition of OLC12 activation of Dmel\Orco + Dmel\Or35a in Xenopus oocytes; type: cell-based; details: activated by 10 µM OLC12 (EC25); read-out: IC50, Dmel\Orco + Dmel\Or35a (activated by 10 µM OLC12)
Description: as §1, §2
(§4) In inhibition assays, oocytes were exposed to 60 sec applications of OLC12 with 9 min washes between applications (Fig. 3 and 4) or 60 sec applications of odorant with 20 min washes between applications (Fig. 5). Oocytes were then exposed to a 90 sec application of antagonist candidate, immediately followed by a 60 sec co-application of antagonist candidate and OLC12 or odorant. Oocytes were then exposed to a final 60 sec application of OLC12 or odorant. The current response in the presence of antagonist candidate was compared to the preceding response(s) to OLC12 (or odorant) alone.
as §3

Dmel\Orco + Dmel\Or35a [4] = target: T1, Dmel\Orco + Dmel\Or35a; experiment: Inhibition of odorant (hexanol) activation of Dmel\Orco + Dmel\Or35a in Xenopus oocytes; type: cell-based; details: 3 µM hexanol; OLC2 100 µM, OLC15 50 µM, OLC20 200 µM
Description: as §1, §2
In inhibition assays, oocytes were exposed to 60 sec applications of OLC12 with 9 min washes between applications (Fig. 3 and 4) or 60 sec applications of odorant with 20 min washes between applications (Fig. 5). […]
Initial analysis of electrophysiological data was done using Clampfit 9.1 software (Molecular Devices). […] Statistical significance was assessed using a two-tailed unpaired t test, an F test, or a one-way analysis of variance followed by the Bonferroni’s post-test, as appropriate.

Dmel\Orco [5] = target: T2, Dmel\Orco; experiment: Inhibition of OLC12 activation of Dmel\Orco in Xenopus oocytes; type: cell-based; details: activated by 30 µM OLC12 (EC39)
Description: as §1, §2, §4, §3

SMILES	Response amplitude as percentage of response to 100 µM OLC3, Cqui\Orco (Cqui\Orco) [%]	Response amplitude as percentage of response to 100 µM OLC3, Onub\Orco + Onub\Or1 (Onub\Orco + Onub\Or1) [%]	Response amplitude as percentage of response to 100 µM OLC3, Dmel\Orco + Dmel\Or35a (Dmel\Orco + Dmel\Or35a [1]) [%]	Response amplitude as percentage of response to 100 µM OLC3, Dmel\Orco (Dmel\Orco [2]) [%]	Response amplitude as percentage of response to 100 µM OLC3, Cqui\Orco + Cqui\Or10 (Cqui\Orco + Cqui\Or10) [%]	IC50 (Dmel\Orco + Dmel\Or35a [3]) [µM]	Emax at 100 µM (Dmel\Orco + Dmel\Or35a [1]) [%]	Emax at 100 µM (Dmel\Orco [2]) [%]	Inhibition of the hexanol response of Dmel\Orco+Dmel\Or35a (Dmel\Orco + Dmel\Or35a [4])	IC50 (Dmel\Orco [5]) [µM]	Emax at 100 µM (Cqui\Orco + Cqui\Or10) [%]
CCc1ccc(NC(=O)CSc2nnc(-c3cnccn3)n2CC)cc1 [OLC4]	0	4 ± 2	4 ± 1	0	0	–	–	–	–	–	–
CCn1c(SCC(=O)Nc2ccc(C)cc2)nnc1-c1cccnc1 [OLC5]	0	4 ± 2	4 ± 1	0	16 ± 2	–	–	–	–	–	–
Sc1nnc(-c2cccnc2)[nH]1 [OLC16]	3 ± 2	–	0	0	0	–	–	–	–	–	–
CCc1ccc(NC(=O)c2cccs2)cc1 [OLC20]	0	–	–	–	–	55 ± 15	0	0	substantial inhibition	57 ± 19	11 ± 4
CCn1c(SCC(=O)Nc2ccc(C)c(C)c2)nnc1-c1ccncc1 [OLC13]	0	–	0	0	0	–	–	–	–	–	–
CCn1c(SCC(=O)Nc2ccc(OC)cc2)nnc1-c1cccnc1 [OLC7]	4 ± 2	0	4 ± 1	0	4 ± 1	–	–	–	–	–	–
CCn1c(SCC(=O)Nc2ccc(Br)cc2)nnc1-c1cccnc1 [OLC10]	0	–	25 ± 7	0	27 ± 16	–	–	–	–	–	–
CCn1c(SCC(=O)Nc2ccc(N(C)C)cc2)nnc1-c1ccncc1 [OLC14]	0	–	–	–	–	81 ± 23	2 ± 1	0	–	25 ± 4	12 ± 2
CC(C)c1ccc(NC(=O)CSc2nnnn2C)cc1 [OLC21]	0	–	0	0	0	–	–	–	–	–	–
